Among the data in patent publication US6900217B2, “Substituted 6,5-hetero-bicyclic derivatives” (Pfizer Inc, priority 1996, dated 2005) are melting point values, retold here.

Each structure is given as a SMILES string.

In turn, `CCC(CC)Nc1c(Br)c(CBr)nc2c1nnn2-c1c(C)cc(C)cc1C` [Example 6, [6-Bromo-5-bromomethyl-3-(2,4,6-trimethyl-phenyl)-3H-[1,2,3]triazolo[4,5-b]pyridin-7-yl]-(1-ethyl-propyl)-amine] yielded a melting point of 123 to 125 °C.

By melting point is commonly meant the temperature of the solid-liquid transition.
